This experiment deals with HFF. In words: Compound was evaluated for CPE inhibition using anti-HCMV assay in AD169 strain infected HFF cells. It is filed as functional, cell-based. To be noted: Homo sapiens.

`Nc1nc(O)c2ccn(C3C=CC(CO)C3)c2n1` (configuration not stated) displayed an EC50 of 350 µM and an IC50 of more than 410 µM.
